Data published in the CheMixHub viscosity set.

Test: xn = mol fraction of the nth substance listed

O=C1CCCCCO1 + CNC(C)=O
viscosity [mPa·s], 101 kPa
Conditions	x2 = 0.0922	x2 = 0.2381	x2 = 0.3459	x2 = 0.4411	x2 = 0.5823	x2 = 0.6289	x2 = 0.6641	x2 = 0.7792	x2 = 0.9465
303.15 K	4.458	3.929	3.6	3.366	3.201	3.187	3.218	3.308	3.629
308.15 K	3.994	3.609	3.358	3.162	2.962	2.921	2.912	2.895	3.062
313.15 K	3.543	3.135	2.944	2.76	2.602	2.552	2.532	2.527	2.773
318.15 K	3.182	2.761	2.616	2.479	2.372	2.33	2.348	2.349	2.453

C=CC#N + CO
viscosity [mPa·s], 101.33 kPa
Conditions	x1 = 0.1021	x1 = 0.2197	x1 = 0.302	x1 = 0.4017	x1 = 0.5035	x1 = 0.6614	x1 = 0.6991	x1 = 0.7966	x1 = 0.8985
298.15 K	0.483	0.435	0.41	0.388	0.367	0.351	0.346	0.34	0.338
303.15 K	0.453	0.41	0.387	0.367	0.354	0.337	0.329	0.325	0.322
308.15 K	0.428	0.387	0.366	0.348	0.331	0.318	0.315	0.311	0.309

CC(=O)CC(C)=O + CO
303.15 K, 101 kPa
Conditions	viscosity [mPa·s]
x1 = 0.0502	0.51
x1 = 0.1002	0.516
x1 = 0.3002	0.547
x1 = 0.5	0.579
x1 = 0.6983	0.611
x1 = 0.9004	0.645
x1 = 0.9511	0.655

CC(=O)[O-].CCCC[NH3+] + CO
101.3 kPa
Conditions	viscosity [mPa·s]
293.15 K, x1 = 0.7993	256.5
298.15 K, x1 = 0.8988	312.5

CCC(C)(C)O + CO
298.15 K, 101.33 kPa
Conditions	viscosity [mPa·s]
x2 = 0.1504	3.673
x2 = 0.2963	3.295
x2 = 0.3807	2.941
x2 = 0.4164	2.789
x2 = 0.4914	2.41
x2 = 0.6011	1.88
x2 = 0.7145	1.404
x2 = 0.7989	1.074
x2 = 0.8988	0.788

CCCCC(C)O (configuration not stated) + CO
298.15 K, 101.33 kPa
Conditions	viscosity [mPa·s]
x2 = 0.1062	3.747
x2 = 0.2053	3.337
x2 = 0.3128	2.892
x2 = 0.412	2.43
x2 = 0.5053	2.04
x2 = 0.6071	1.647
x2 = 0.703	1.315
x2 = 0.8146	0.9858
x2 = 0.9006	0.7707

Cc1ccc(C(C)C)cc1 + CO
293.15 K, 101 kPa
Conditions	viscosity [mPa·s]
x2 = 0.2	0.799
x2 = 0.4	0.793
x2 = 0.6	0.793
x2 = 0.7	0.774
x2 = 0.8	0.732

Cn1ccnc1 + CO
viscosity [mPa·s]
Conditions	298.15 K	308.15 K	318.15 K
100 kPa, x1 = 0.0511	0.6235	0.5549	0.4923
100 kPa, x1 = 0.1008	0.7071	0.6136	0.5376
100 kPa, x1 = 0.1961	0.8597	0.7399	0.6379
100 kPa, x1 = 0.279	0.9763	0.8372	0.7265
100 kPa, x1 = 0.3965	1.159	0.9854	0.849
100 kPa, x1 = 0.5013	1.298	1.098	0.942
100 kPa, x1 = 0.6101	1.429	1.203	1.029
100 kPa, x1 = 0.6941	1.514	1.277	1.088
100 kPa, x1 = 0.7955	1.607	1.348	1.151
100 kPa, x1 = 0.8414	1.645	1.377	1.174
100 kPa, x1 = 0.9501	1.727	1.445	1.23
101 kPa, x1 = 0.0502	–	0.5358	–
101 kPa, x1 = 0.1011	–	0.5959	–
101 kPa, x1 = 0.2	–	0.7153	–
101 kPa, x1 = 0.3006	–	0.8325	–
101 kPa, x1 = 0.4	–	0.9415	–
101 kPa, x1 = 0.4999	–	1.039	–
101 kPa, x1 = 0.5999	–	1.128	–
101 kPa, x1 = 0.7002	–	1.207	–
101 kPa, x1 = 0.7985	–	1.278	–
101 kPa, x1 = 0.8958	–	1.336	–
101 kPa, x1 = 0.9433	–	1.359	–

[2H]O[2H] + CO
298.15 K, 101 kPa
Conditions	viscosity [mPa·s]
x2 = 0.0449	1.386
x2 = 0.0748	1.535
x2 = 0.1437	1.783
x2 = 0.2044	1.893
x2 = 0.3143	1.872
x2 = 0.4238	1.711

Cc1ccc(C(C)C)cc1 + COC(C)(C)C
298.15 K, 101.33 kPa
Conditions	viscosity [mPa·s]
x2 = 0.0616	0.7751
x2 = 0.1556	0.7225
x2 = 0.3301	0.6338
x2 = 0.4987	0.5524
x2 = 0.5665	0.5253
x2 = 0.6911	0.4605
x2 = 0.7665	0.4272
x2 = 0.8304	0.3998
x2 = 0.8734	0.3814
x2 = 0.9298	0.3583
x2 = 0.9644	0.3467

C=CC#N + COC(C)=O
viscosity [mPa·s]
Conditions	298.15 K	303.15 K	308.15 K
101.3 kPa, x1 = 0.1018	–	0.3427	–
101.3 kPa, x1 = 0.1999	–	0.3428	–
101.3 kPa, x1 = 0.3006	–	0.3407	–
101.3 kPa, x1 = 0.4001	–	0.338	–
101.3 kPa, x1 = 0.4946	–	0.3357	–
101.3 kPa, x1 = 0.6012	–	0.3319	–
101.3 kPa, x1 = 0.6955	–	0.3283	–
101.3 kPa, x1 = 0.8014	–	0.3242	–
101.3 kPa, x1 = 0.896	–	0.3198	–
101.33 kPa, x1 = 0.0617	0.389	0.371	0.354
101.33 kPa, x1 = 0.1961	0.385	0.367	0.351
101.33 kPa, x1 = 0.3042	0.38	0.362	0.349
101.33 kPa, x1 = 0.4041	0.375	0.357	0.345
101.33 kPa, x1 = 0.5024	0.37	0.353	0.34
101.33 kPa, x1 = 0.6004	0.365	0.348	0.335
101.33 kPa, x1 = 0.7033	0.36	0.343	0.33
101.33 kPa, x1 = 0.8037	0.355	0.336	0.322
101.33 kPa, x1 = 0.8416	0.353	0.333	0.319

CCC(C)(C)O + COC(C)=O
298.15 K, 101.33 kPa
Conditions	viscosity [mPa·s]
x2 = 0.1632	1.792
x2 = 0.2443	1.33
x2 = 0.35	0.96
x2 = 0.448	0.787
x2 = 0.5246	0.677
x2 = 0.6222	0.57
x2 = 0.7221	0.496
x2 = 0.8153	0.434
x2 = 0.9107	0.395

CCC(C)(C)O + COc1ccccc1
viscosity [mPa·s], 101.33 kPa
Conditions	x2 = 0.1	x2 = 0.2	x2 = 0.2997	x2 = 0.4001	x2 = 0.5007	x2 = 0.5997	x2 = 0.7012	x2 = 0.8005	x2 = 0.9
303.15 K	2.246	1.792	1.463	1.232	1.079	0.988	0.941	0.922	0.917
313.15 K	1.623	1.339	1.125	0.976	0.885	0.831	0.808	0.799	0.792
323.15 K	1.206	1.023	0.885	0.798	0.751	0.73	0.719	0.709	0.697

CN(C)c1ccccc1 + COc1ccccc1
viscosity [mPa·s], 101 kPa
Conditions	x1 = 0.1072	x1 = 0.2092	x1 = 0.3052	x1 = 0.406	x1 = 0.5082	x1 = 0.6053	x1 = 0.6916	x1 = 0.7895	x1 = 0.8939
293.15 K	1.123	1.171	1.21	1.247	1.281	1.309	1.331	1.349	1.359
298.15 K	1.039	1.083	1.124	1.159	1.191	1.22	1.241	1.255	1.27
303.15 K	0.957	0.994	1.032	1.064	1.092	1.116	1.135	1.142	1.158
308.15 K	0.887	0.917	0.949	0.98	1.004	1.025	1.036	1.042	1.056
313.15 K	0.811	0.838	0.866	0.897	0.92	0.936	0.947	0.955	0.969
318.15 K	0.767	0.791	0.815	0.845	0.869	0.883	0.889	0.898	0.911
323.15 K	0.709	0.728	0.751	0.778	0.8	0.811	0.814	0.823	0.836

C=CC#N + CS(C)=O
303.15 K, 101.3 kPa
Conditions	viscosity [mPa·s]
x1 = 0.102	1.529
x1 = 0.2051	1.288
x1 = 0.3025	1.096
x1 = 0.3994	0.9277
x1 = 0.5057	0.771
x1 = 0.6018	0.6508
x1 = 0.7045	0.5395
x1 = 0.8066	0.4478
x1 = 0.8999	0.3757

CC(=O)CC(C)=O + CS(C)=O
303.15 K, 101 kPa
Conditions	viscosity [mPa·s]
x2 = 0.1118	0.819
x2 = 0.2207	0.9187
x2 = 0.3269	1.032
x2 = 0.4303	1.117
x2 = 0.5312	1.209
x2 = 0.6296	1.302
x2 = 0.7256	1.427

O=C1c2ccccc2C(=O)C1(O)O + C[N+](C)(C)CCO.[Cl-]
Conditions	viscosity [mPa·s]
323.15 K, 100 kPa, x2 = 0.571	30500

C=CC#N + Cc1cc(C)cc(C)c1
307.4 K, 101.33 kPa
Conditions	viscosity [mPa·s]
x2 = 0.121	0.551
x2 = 0.3367	0.495
x2 = 0.5736	0.424
x2 = 0.649	0.406
x2 = 0.7535	0.373
x2 = 0.9118	0.332

CC(CC(C)(C)C)CC(C)(C)C + Cc1cc(C)cc(C)c1
viscosity [mPa·s], 102 kPa
Conditions	x2 = 0.1002	x2 = 0.2001	x2 = 0.3009	x2 = 0.4006	x2 = 0.4977	x2 = 0.6	x2 = 0.7	x2 = 0.8001	x2 = 0.9001
293.15 K	1.22	1.13	1.05	0.972	0.908	0.848	0.805	0.761	0.727
303.15 K	1.03	0.96	0.893	0.837	0.789	0.738	0.697	0.658	0.63
313.15 K	0.892	0.831	0.782	0.732	0.691	0.65	0.614	0.58	0.555
323.15 K	0.781	0.738	0.693	0.649	0.613	0.578	0.546	0.517	0.494

CC(CC(C)(C)C)CC(C)(C)C + Cc1ccc(C)c(C)c1
viscosity [mPa·s], 102 kPa
Conditions	x2 = 0.0923	x2 = 0.2008	x2 = 0.3004	x2 = 0.4003	x2 = 0.4979	x2 = 0.5999	x2 = 0.7003	x2 = 0.7999	x2 = 0.8992
293.15 K	1.24	1.16	1.09	1.03	0.975	0.93	0.891	0.864	0.848
303.15 K	1.05	0.981	0.926	0.882	0.845	0.808	0.776	0.75	0.736
313.15 K	0.906	0.855	0.813	0.774	0.739	0.709	0.679	0.657	0.647
323.15 K	0.789	0.749	0.716	0.683	0.652	0.625	0.602	0.582	0.573

CN(C)c1ccccc1 + Cc1ccccc1
viscosity [mPa·s], 101 kPa
Conditions	x1 = 0.1011	x1 = 0.1961	x1 = 0.3125	x1 = 0.4011	x1 = 0.493	x1 = 0.5974	x1 = 0.701	x1 = 0.8015	x1 = 0.8983
298.15 K	0.597	0.653	0.711	0.767	0.831	0.906	0.989	1.066	1.173
303.15 K	0.561	0.604	0.668	0.714	0.77	0.834	0.911	0.988	1.07
308.15 K	0.532	0.57	0.625	0.671	0.726	0.782	0.854	0.918	0.999
313.15 K	0.499	0.536	0.586	0.619	0.664	0.726	0.78	0.851	0.914
